Results from ChEMBL document CHEMBL1134711, “Pharmacophore-based discovery of 3,4-disubstituted pyrrolidines as a novel class of monoamine transporter inhibitors” (Bioorg Med Chem Lett, 2001).

Key:
[1] = biological target: T1, Sodium-dependent dopamine transporter (Rattus norvegicus, UniProt P23977); assay: Inhibition of [3H]DA uptake at Dopamine transporter in rat cortex.
[2] = biological target: Norepinephrine transporter (Rattus norvegicus, UniProt Q9WTR4); assay: Inhibition of [3H]NE uptake at Norepinephrine transporter in rat parietal/occipital cortex was determined
Norepinephrine transporter, sequence (Q9WTR4 whole entry): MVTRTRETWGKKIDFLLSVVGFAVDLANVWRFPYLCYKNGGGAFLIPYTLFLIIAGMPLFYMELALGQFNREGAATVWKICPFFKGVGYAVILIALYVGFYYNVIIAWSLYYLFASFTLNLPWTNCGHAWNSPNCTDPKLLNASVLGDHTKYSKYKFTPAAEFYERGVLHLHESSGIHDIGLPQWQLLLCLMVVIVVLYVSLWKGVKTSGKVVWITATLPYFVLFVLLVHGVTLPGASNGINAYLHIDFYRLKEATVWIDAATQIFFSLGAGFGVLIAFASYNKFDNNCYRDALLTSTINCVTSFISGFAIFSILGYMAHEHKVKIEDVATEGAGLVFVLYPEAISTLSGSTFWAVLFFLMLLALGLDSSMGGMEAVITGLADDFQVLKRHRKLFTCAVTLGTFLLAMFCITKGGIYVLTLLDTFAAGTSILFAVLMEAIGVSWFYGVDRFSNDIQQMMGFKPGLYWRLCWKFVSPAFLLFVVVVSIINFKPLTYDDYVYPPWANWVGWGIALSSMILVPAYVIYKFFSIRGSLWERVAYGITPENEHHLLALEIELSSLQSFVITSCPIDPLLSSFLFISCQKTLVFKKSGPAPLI

[3] = biological target: Sodium-dependent serotonin transporter (Rattus norvegicus, UniProt P31652); assay: Inhibition of [3H]5-HT uptake at Serotonin transporter in rat mid brain
Sodium-dependent serotonin transporter, sequence (P31652 whole entry): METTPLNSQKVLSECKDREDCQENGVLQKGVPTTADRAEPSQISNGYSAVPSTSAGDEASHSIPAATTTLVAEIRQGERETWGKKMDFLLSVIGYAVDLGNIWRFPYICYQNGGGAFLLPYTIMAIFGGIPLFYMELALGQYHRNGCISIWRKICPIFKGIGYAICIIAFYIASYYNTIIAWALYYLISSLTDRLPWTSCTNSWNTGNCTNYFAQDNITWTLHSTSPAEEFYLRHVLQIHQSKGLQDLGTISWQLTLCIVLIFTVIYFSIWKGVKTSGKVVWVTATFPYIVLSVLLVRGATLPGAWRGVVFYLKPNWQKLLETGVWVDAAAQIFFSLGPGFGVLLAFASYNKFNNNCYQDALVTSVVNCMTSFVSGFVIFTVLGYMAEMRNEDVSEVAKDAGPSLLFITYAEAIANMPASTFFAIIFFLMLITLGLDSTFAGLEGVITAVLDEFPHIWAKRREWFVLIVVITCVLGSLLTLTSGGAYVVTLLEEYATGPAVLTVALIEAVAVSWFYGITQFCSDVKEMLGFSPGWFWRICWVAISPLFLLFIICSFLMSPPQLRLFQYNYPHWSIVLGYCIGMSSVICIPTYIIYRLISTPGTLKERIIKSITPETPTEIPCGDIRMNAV

[4] = In vitro Ki against [3H]mazindol binding.
[5] = biological target: T1, Sodium-dependent dopamine transporter; assay: Functional cocaine antagonism was evaluated by inhibition of [3H]dopamine reuptake
[6] = biological target: T1, Sodium-dependent dopamine transporter; assay: Functional cocaine antagonism was evaluated by inhibition of [3H]dopamine reuptake at a concentration of 100 nM with cocaine
[7] = biological target: T1, Sodium-dependent dopamine transporter; assay: Functional cocaine antagonism was evaluated by inhibition of [3H]dopamine reuptake at a concentration of 30 nM with cocaine
[8] = biological target: T1, Sodium-dependent dopamine transporter; assay: Functional cocaine antagonism was evaluated by inhibition of [3H]dopamine reuptake at a concentration of 300 nM with cocaine

T1 sequence (P23977 whole entry): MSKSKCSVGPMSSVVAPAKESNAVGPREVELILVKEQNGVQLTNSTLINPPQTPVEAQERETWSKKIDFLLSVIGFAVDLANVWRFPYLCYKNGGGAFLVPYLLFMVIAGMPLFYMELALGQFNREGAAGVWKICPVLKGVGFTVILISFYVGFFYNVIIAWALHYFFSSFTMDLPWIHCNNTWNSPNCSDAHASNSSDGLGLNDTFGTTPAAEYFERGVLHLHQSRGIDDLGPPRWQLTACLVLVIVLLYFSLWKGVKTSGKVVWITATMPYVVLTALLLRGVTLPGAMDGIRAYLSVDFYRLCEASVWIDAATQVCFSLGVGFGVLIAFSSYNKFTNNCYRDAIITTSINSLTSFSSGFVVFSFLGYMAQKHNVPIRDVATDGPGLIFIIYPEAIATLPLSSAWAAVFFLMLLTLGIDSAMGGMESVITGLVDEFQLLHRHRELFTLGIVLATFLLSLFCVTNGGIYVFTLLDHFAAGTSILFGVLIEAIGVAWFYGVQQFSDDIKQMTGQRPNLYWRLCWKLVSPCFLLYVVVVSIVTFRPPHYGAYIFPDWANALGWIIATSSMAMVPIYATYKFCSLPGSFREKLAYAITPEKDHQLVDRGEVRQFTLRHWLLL

| Compound | Ki [1] [nM] | Ki [2] [nM] | Ki [3] [nM] | Ki [4] [nM] | other results |
| --- | --- | --- | --- | --- | --- |
| O=C(c1ccccn1)[C@@H]1CN(c2ccccc2)C[C@H]1c1ccccc1 | > 10000 | > 10000 | > 10000 | > 10000 |  |
| CN1C[C@@H](C(=O)c2ccccc2)[C@H](c2ccccc2)C1 | 1410 | 150 | 750 | 1180 |  |
| O=C(c1ccccc1)[C@@H]1CN(c2ccccc2)C[C@H]1c1ccc(Cl)cc1 | > 10000 |  |  |  |  |
| COc1ccc(C(=O)[C@@H]2CN(C)C[C@H]2c2ccc(Cl)cc2)cc1 | 1160 |  |  |  |  |
| COC(=O)[C@@H]1C2CC[C@@H](C[C@@H]1OC(=O)c1ccccc1)N2C (single isomer, unassigned) [COCAINE] |  |  |  | 230 |  |
| CN1C[C@@H](C(=O)c2ccccc2Cl)[C@H](c2ccc(Cl)cc2)C1 | 610 | 69 | 540 | 340 |  |
| COc1ccccc1C(=O)[C@@H]1CN(c2ccccc2)C[C@H]1c1ccc(Cl)cc1 | > 10000 |  |  |  |  |
| O=C(c1cccs1)[C@@H]1CN(c2ccccc2)C[C@H]1c1ccccc1 | > 10000 | > 10000 | > 10000 | > 10000 |  |
| CN1C[C@@H](C(=O)c2ccc(Cl)cc2)[C@H](c2ccc(Cl)cc2Cl)C1 | 1260 |  |  |  |  |
| CN1C[C@@H](C(=O)c2cccs2)[C@H](c2ccc(Cl)cc2)C1 | 200 | 31 | 230 | 84 | IC50 [5]: 308 nM; IC50 [6]: 641 nM; IC50 [7]: 46 nM |
| CN1C[C@@H](C(=O)c2ccccn2)[C@H](c2ccccc2)C1 | 630 |  | 830 | 510 | IC50 [5]: 663 nM; IC50 [6]: 494 nM; IC50 [8]: 645 nM |
| CN1C[C@@H](C(=O)c2cccc(C(F)(F)F)c2)[C@H](c2ccc(Cl)cc2)C1 | 3170 |  |  |  |  |
| CN1C[C@@H](C(=O)c2ccc(F)cc2)[C@H](c2ccc(F)cc2)C1 | 3960 | 800 | 380 |  |  |
| Cc1ccc([C@@H]2CN(C)C[C@H]2C(=O)c2ccccc2F)cc1 | 1930 |  |  |  |  |
| CN1C[C@@H](C(=O)c2ccc(Cl)cc2)[C@H](c2ccccc2)C1 | 1220 | 430 | 520 | 1250 |  |
| CN1C[C@@H](C(=O)c2ccc(Cl)cc2)[C@H](c2ccccc2F)C1 | 1280 |  |  |  |  |
| Cc1ccc([C@@H]2CN(c3ccccc3)C[C@H]2C(=O)c2ccc(F)cc2)cc1 | > 10000 |  |  |  |  |
